Assay results as given in article PMC7026418, “The kinase polypharmacology landscape of clinical PARP inhibitors” (Scientific Reports, 2020).
Like-named read-outs stand apart in the source and are kept apart here. One block for each molecule: values may come before it.

Assays:
Test in all cases: biochemical
Set-up in all cases: DiscoveRx KINOMEscan active site-directed competition binding; percent of control kinase bound to immobilised ligand
RET(V804L) = RET(V804L) (Homo sapiens, UniProt P07949, V804L)
Sequence of RET(V804L) (P07949 whole entry V804L): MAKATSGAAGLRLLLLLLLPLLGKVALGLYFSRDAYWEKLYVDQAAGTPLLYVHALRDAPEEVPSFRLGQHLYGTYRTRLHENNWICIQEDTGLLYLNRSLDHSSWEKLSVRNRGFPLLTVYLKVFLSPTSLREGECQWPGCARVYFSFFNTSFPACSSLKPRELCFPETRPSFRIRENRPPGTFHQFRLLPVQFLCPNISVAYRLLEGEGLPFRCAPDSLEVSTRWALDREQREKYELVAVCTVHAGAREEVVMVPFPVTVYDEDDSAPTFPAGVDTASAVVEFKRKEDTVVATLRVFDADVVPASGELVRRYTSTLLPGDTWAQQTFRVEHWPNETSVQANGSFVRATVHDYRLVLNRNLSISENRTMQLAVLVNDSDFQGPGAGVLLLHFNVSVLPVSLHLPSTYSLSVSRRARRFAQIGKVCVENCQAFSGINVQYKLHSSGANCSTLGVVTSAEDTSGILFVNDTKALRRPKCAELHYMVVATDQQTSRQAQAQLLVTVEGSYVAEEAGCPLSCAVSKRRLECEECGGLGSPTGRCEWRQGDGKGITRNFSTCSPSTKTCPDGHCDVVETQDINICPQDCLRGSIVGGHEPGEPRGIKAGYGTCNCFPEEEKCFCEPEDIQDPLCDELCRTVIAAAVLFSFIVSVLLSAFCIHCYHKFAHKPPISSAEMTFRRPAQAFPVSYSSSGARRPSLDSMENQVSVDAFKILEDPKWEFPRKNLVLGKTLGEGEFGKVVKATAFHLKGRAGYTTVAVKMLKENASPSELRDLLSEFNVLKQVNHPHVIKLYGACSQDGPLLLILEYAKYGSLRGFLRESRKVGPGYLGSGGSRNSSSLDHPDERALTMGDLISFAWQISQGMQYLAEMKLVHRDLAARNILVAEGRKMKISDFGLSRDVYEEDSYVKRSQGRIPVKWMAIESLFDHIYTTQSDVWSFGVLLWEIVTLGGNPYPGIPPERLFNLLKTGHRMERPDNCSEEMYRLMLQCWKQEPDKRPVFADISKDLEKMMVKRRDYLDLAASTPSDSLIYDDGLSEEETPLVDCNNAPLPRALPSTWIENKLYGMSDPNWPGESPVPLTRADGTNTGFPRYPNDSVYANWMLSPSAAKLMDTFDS

FGFR2 = FGFR2 (Homo sapiens, UniProt P21802)
SgK110 = biological target: T1, SgK110 (Homo sapiens, UniProt P0C264)
T1 construct: gene SBK3
T1 sequence (P0C264 1-359): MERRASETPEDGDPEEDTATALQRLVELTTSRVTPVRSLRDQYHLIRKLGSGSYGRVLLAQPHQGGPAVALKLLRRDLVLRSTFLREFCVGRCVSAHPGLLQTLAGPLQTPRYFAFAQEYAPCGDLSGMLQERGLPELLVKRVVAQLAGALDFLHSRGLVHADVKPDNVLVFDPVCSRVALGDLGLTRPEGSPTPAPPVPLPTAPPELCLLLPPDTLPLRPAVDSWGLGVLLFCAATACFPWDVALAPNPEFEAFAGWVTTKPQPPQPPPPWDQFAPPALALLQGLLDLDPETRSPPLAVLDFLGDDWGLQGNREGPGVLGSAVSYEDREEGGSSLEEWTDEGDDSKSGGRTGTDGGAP

MARK1 = MARK1 (Homo sapiens, UniProt Q9P0L2)
Sequence of MARK1 (Q9P0L2 whole entry): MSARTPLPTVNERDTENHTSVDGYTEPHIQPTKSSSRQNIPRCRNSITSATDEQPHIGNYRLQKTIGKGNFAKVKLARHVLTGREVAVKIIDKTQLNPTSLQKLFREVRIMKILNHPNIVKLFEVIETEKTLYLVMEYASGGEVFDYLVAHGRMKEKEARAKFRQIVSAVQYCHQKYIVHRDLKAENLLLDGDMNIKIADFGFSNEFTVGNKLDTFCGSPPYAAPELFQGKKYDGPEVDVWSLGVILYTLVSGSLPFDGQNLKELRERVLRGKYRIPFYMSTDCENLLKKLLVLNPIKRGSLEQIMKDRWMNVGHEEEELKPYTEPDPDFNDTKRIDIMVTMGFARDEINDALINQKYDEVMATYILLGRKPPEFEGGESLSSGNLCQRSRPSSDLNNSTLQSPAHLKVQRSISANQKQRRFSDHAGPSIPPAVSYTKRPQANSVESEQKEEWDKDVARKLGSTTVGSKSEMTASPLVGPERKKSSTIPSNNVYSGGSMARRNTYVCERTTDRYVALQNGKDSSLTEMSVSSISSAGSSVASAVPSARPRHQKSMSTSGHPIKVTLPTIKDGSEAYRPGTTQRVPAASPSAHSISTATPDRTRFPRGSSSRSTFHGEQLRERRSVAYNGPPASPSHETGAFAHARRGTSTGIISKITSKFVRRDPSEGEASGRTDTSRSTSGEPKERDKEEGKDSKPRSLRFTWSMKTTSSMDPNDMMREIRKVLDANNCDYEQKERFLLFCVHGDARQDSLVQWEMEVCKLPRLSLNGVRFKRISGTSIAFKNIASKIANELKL

EPHB3 = biological target: T2, EPHB3 (Homo sapiens, UniProt P54753)
T2 sequence (P54753 1-998): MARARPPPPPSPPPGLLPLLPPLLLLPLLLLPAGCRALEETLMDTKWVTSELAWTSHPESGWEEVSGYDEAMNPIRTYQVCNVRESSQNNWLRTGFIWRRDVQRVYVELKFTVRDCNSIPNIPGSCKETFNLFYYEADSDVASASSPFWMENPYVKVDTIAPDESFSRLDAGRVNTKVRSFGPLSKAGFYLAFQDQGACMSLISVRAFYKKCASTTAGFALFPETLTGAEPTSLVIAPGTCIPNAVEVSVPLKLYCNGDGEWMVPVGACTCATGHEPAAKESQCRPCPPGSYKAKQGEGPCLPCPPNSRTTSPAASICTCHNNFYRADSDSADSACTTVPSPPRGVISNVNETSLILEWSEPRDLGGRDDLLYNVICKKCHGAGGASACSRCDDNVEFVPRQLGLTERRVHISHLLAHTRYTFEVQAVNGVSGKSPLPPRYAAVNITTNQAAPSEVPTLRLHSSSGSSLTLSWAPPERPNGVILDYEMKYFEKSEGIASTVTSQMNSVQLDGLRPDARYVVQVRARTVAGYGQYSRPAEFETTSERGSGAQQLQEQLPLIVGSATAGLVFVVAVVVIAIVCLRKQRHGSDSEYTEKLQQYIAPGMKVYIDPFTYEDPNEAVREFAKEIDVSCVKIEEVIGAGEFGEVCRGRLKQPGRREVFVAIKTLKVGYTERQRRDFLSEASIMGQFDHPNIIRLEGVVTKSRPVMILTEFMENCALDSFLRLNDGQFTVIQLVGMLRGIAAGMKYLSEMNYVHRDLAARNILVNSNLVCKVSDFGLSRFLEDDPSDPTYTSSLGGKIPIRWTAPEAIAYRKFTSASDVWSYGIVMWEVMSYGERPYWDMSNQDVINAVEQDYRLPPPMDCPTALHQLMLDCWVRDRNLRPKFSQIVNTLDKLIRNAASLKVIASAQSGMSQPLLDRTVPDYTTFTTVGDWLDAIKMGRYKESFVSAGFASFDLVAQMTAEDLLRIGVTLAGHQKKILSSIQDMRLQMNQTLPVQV

YSK1 = biological target: T3, YSK1 (Homo sapiens, UniProt O00506)
T3 construct: gene STK25
T3 sequence (O00506 whole entry): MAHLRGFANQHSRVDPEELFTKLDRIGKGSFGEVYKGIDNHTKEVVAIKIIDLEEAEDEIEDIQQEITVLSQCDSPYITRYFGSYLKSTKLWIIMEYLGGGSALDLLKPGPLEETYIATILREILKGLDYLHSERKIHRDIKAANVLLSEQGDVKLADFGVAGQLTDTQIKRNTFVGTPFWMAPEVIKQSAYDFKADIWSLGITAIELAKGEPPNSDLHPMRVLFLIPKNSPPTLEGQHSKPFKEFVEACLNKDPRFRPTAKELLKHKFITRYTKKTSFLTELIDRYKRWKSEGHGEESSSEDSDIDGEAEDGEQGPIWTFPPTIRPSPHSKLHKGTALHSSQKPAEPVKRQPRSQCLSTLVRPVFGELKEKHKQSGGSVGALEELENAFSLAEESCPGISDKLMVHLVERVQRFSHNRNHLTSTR

GCN2(Kin.Dom.2,S808G) = biological target: T4, GCN2(Kin.Dom.2,S808G) (Homo sapiens, UniProt Q9P2K8, S808G)
T4 construct: gene EIF2AK4; Kin.Dom.2
T4 sequence (Q9P2K8 whole entry S808G): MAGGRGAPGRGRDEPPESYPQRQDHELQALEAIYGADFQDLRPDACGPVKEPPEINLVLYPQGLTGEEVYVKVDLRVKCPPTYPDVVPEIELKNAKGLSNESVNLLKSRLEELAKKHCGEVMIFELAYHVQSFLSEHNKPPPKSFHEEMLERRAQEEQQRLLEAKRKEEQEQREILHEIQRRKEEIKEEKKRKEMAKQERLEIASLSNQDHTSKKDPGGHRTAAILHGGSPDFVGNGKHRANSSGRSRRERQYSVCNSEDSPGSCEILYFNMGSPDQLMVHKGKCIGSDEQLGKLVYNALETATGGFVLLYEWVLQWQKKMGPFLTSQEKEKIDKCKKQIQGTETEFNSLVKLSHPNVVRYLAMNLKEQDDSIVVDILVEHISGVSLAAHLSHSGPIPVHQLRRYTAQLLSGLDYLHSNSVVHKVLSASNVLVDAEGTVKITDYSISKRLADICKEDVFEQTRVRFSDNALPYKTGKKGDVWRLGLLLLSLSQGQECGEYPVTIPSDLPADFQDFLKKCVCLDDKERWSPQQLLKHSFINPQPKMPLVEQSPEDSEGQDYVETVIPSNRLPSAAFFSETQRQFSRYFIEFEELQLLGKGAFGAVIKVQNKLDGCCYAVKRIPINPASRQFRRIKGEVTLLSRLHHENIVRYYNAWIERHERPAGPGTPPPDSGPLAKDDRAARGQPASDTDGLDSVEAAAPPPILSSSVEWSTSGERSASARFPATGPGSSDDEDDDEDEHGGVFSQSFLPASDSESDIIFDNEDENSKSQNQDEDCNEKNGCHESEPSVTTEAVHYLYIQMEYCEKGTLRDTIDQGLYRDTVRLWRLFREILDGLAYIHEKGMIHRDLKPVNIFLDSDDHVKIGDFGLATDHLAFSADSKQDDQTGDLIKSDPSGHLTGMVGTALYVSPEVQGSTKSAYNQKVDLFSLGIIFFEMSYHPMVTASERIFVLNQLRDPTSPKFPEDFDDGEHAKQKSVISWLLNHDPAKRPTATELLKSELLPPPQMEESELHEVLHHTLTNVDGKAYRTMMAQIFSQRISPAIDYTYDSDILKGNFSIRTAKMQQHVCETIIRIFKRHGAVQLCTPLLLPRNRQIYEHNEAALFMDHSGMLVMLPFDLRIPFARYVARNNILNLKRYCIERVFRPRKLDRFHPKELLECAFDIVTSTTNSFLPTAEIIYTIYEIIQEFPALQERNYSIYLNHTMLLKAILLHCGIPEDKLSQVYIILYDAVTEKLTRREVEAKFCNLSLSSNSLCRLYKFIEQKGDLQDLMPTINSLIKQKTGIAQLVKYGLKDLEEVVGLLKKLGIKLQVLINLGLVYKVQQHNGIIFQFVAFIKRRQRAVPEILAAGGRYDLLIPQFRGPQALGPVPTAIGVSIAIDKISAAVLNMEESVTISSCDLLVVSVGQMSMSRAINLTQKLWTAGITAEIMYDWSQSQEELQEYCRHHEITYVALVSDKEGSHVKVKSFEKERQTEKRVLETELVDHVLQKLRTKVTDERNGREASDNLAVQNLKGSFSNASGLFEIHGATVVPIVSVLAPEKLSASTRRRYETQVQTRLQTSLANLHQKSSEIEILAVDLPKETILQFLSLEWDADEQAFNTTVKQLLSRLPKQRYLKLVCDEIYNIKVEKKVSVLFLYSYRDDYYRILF

CSNK1G3 = CSNK1G3 (Homo sapiens, UniProt Q9Y6M4)
Sequence of CSNK1G3 (Q9Y6M4 whole entry): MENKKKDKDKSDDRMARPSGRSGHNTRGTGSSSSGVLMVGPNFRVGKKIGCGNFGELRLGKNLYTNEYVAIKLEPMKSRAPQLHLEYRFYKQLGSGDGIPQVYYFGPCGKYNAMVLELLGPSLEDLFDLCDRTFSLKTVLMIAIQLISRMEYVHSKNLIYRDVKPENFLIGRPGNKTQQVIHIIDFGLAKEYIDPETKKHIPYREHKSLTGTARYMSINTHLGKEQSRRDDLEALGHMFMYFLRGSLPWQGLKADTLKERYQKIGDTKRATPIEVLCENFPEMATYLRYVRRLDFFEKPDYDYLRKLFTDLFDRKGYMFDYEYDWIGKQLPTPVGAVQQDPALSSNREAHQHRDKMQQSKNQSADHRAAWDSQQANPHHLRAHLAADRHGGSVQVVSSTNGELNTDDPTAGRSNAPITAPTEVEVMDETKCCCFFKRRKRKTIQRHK

CDK3 = CDK3 (Homo sapiens, UniProt Q00526)
Sequence of CDK3 (Q00526 whole entry): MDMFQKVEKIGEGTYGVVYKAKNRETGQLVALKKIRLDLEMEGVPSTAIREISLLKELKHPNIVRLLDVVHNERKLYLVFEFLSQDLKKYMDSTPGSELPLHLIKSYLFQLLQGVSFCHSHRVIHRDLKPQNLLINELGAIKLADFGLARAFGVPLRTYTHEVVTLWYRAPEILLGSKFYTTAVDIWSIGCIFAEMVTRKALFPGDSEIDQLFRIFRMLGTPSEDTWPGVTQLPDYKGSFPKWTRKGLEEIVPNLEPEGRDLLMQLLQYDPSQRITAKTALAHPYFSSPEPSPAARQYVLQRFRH

[1] = read-out: Niraparib (MK-4827) / %Ctrl @ 10000nM
[2] = read-out: Olaparib / %Ctrl @ 10000nM
[3] = read-out: Rucaparib / %Ctrl @ 10000nM, binding competition, % of control
[4] = read-out: Talazoparib (BMN 673) / %Ctrl @ 10000nM

SMILES: NC(=O)c1cccc2cn(-c3ccc([C@@H]4CCCNC4)cc3)nc12 [Niraparib]
percent of control binding at 10 µM (RET(V804L); [1]): 92%
percent of control binding at 10 µM (FGFR2; [1]): 100%
percent of control binding at 10 µM (SgK110; [1]): 84%
percent of control binding at 10 µM (MARK1; [1]): 93%
percent of control binding at 10 µM (EPHB3; [1]): 82%
percent of control binding at 10 µM (YSK1; [1]): 99%
percent of control binding at 10 µM (GCN2(Kin.Dom.2,S808G); [1]): 83%
percent of control binding at 10 µM (CSNK1G3; [1]): 85%
percent of control binding at 10 µM (CDK3; [1]): 95%

percent of control binding at 10 µM (RET(V804L); [2]): 100%
percent of control binding at 10 µM (FGFR2; [2]): 100%
percent of control binding at 10 µM (SgK110; [2]): 63%
percent of control binding at 10 µM (MARK1; [2]): 93%
percent of control binding at 10 µM (EPHB3; [2]): 87%
percent of control binding at 10 µM (YSK1; [2]): 97%
percent of control binding at 10 µM (GCN2(Kin.Dom.2,S808G); [2]): 93%
percent of control binding at 10 µM (CSNK1G3; [2]): 93%
percent of control binding at 10 µM (CDK3; [2]): 100%
SMILES: O=C(c1cc(Cc2n[nH]c(=O)c3ccccc23)ccc1F)N1CCN(C(=O)C2CC2)CC1 [Olaparib]

percent of control binding at 10 µM (RET(V804L); [3]): 95%
percent of control binding at 10 µM (FGFR2; [3]): 99%
percent of control binding at 10 µM (SgK110; [3]): 63%
percent of control binding at 10 µM (MARK1; [3]): 85%
percent of control binding at 10 µM (EPHB3; [3]): 99%
percent of control binding at 10 µM (YSK1; [3]): 87%
percent of control binding at 10 µM (GCN2(Kin.Dom.2,S808G); [3]): 55%
percent of control binding at 10 µM (CSNK1G3; [3]): 97%
percent of control binding at 10 µM (CDK3; [3]): 94%
SMILES: CNCc1ccc(-c2[nH]c3cc(F)cc4c3c2CCNC4=O)cc1 [Rucaparib]

percent of control binding at 10 µM (RET(V804L); [4]): 96%
percent of control binding at 10 µM (FGFR2; [4]): 100%
percent of control binding at 10 µM (SgK110; [4]): 100%
percent of control binding at 10 µM (MARK1; [4]): 89%
percent of control binding at 10 µM (EPHB3; [4]): 100%
percent of control binding at 10 µM (YSK1; [4]): 80%
percent of control binding at 10 µM (GCN2(Kin.Dom.2,S808G); [4]): 100%
percent of control binding at 10 µM (CSNK1G3; [4]): 88%
percent of control binding at 10 µM (CDK3; [4]): 100%
SMILES: Cn1ncnc1[C@H]1c2n[nH]c(=O)c3cc(F)cc(c23)N[C@@H]1c1ccc(F)cc1 [Talazoparib]
